# Source: PubChem BioAssay AID256 (DTP/NCI, 2004)
# Several values for one entry are separate records, joined by “and”; a condition that tells them apart may be missing. Identical values can stand only once. Inconclusive results and toxic doses are left out.
# Tested on: CD2F1 mice, L1210 leukemia ip, survival T/C
# Test: NCI In Vivo Anticancer Drug Screen. Data for tumor model L1210 Leukemia (intraperitoneal) in CD2F1 (CDF1) mice
# Conditions: endpoint: mean survival time, higher = longer survival
# Procedure, shortened: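 In this screen, transplantable tumors were grown in mice given either the compound or its vehicle. Results were expressed as the treated measurement relative to the control measurement.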
# [1] = dose: 100.0 mg/kg/injection, schedule: Q04DX003 (ip), vehicle: saline with Tween-80
# [2] = dose: 200.0 mg/kg/injection, schedule: Q04DX003 (ip), vehicle: saline with Tween-80
# [3] = dose: 100.0 mg/kg/injection, schedule: Q04DX003 (ip), vehicle: Klucel (hydroxypropylcellulose) (HPC)
# [4] = dose: 200.0 mg/kg/injection, schedule: Q04DX003 (ip), vehicle: Klucel (hydroxypropylcellulose) (HPC)
# [5] = dose: 100.0 mg/kg/injection, schedule: Q04DX002 (ip), vehicle: saline with Tween-80
# [6] = dose: 200.0 mg/kg/injection, schedule: Q04DX002 (ip), vehicle: saline with Tween-80
# [7] = dose: 400.0 mg/kg/injection, schedule: Q04DX002 (ip), vehicle: saline with Tween-80
# [8] = dose: 100.0 mg/kg/injection, schedule: Q01DX001 (ip), vehicle: saline with Tween-80
# [9] = dose: 100.0 mg/kg/injection, schedule: Q01DX009 (ip), vehicle: saline with Tween-80
compound,measurement,setting,value
NCCNCCNCCNCCN (tested in a mixture with another compound),T/C,"dose: 50.0 mg/kg/injection, schedule: Q01DX009 (ip), vehicle: saline",104 % of control
same,T/C,"dose: 100.0 mg/kg/injection, schedule: Q01DX009 (ip), vehicle: saline",111 % of control
same,T/C,[1],110 % of control
same,T/C,[2],105 % of control
CN(C)CC1CN(C)CC(CN(C)C)C1(O)C(C(=O)N(C)C)c1ccccc1 (stereo not drawn),T/C,"dose: 75.0 mg/kg/injection, schedule: Q01DX001 (ip), vehicle: other",98 % of control
same,T/C,"dose: 150.0 mg/kg/injection, schedule: Q01DX001 (ip), vehicle: other",100 % of control
same,T/C,"dose: 300.0 mg/kg/injection, schedule: Q01DX001 (ip), vehicle: other",98 % of control
CNc1nc(N)nc2nonc12,T/C,"dose: 12.5 mg/kg/injection, schedule: Q01DX005 (ip), vehicle: other",98 % of control
same,T/C,"dose: 25.0 mg/kg/injection, schedule: Q01DX005 (ip), vehicle: other",98 % of control
same,T/C,"dose: 50.0 mg/kg/injection, schedule: Q01DX005 (ip), vehicle: other",95 % of control
same,T/C,"dose: 100.0 mg/kg/injection, schedule: Q01DX005 (ip), vehicle: other",86 % of control
same,T/C,"dose: 200.0 mg/kg/injection, schedule: Q01DX005 (ip), vehicle: other",89 % of control
C=C(Br)CN=C=S,T/C,"dose: 12.5 mg/kg/injection, schedule: Q04DX003 (ip), vehicle: saline",94 % of control
same,T/C,"dose: 25.0 mg/kg/injection, schedule: Q04DX003 (ip), vehicle: saline",94 % of control
same,T/C,"dose: 50.0 mg/kg/injection, schedule: Q04DX003 (ip), vehicle: saline",88 % of control
CCC(c1ccc2cc(OC)ccc2c1)C(C(=O)O)C(=O)O (stereo not drawn),T/C,[3],95 % of control
same,T/C,[4],93 % of control
COc1ccc(C(C)O)cc1 (stereo not drawn),T/C,[5],104 % of control
same,T/C,[6],93 % of control
same,T/C,[7],97 % of control
CC([NH-])CC[NH-].[Cl][Pt+2][Cl] (stereo not drawn),T/C,"dose: 6.25 mg/kg/injection, schedule: Q04DX003 (ip), vehicle: saline with Tween-80",151 % of control
Nc1ccc(-c2ccc(C(=O)O)cc2)cc1,T/C,[8],104 % of control and 108 % of control
same,T/C,[5],101 % of control and 107 % of control
same,T/C,"dose: 200.0 mg/kg/injection, schedule: Q01DX001 (ip), vehicle: saline with Tween-80",93 % of control and 98 % of control
same,T/C,[6],95 % of control and 96 % of control
same,T/C,[7],87 % of control
COc1cc2c(C(=O)O)cc(-c3ccc(Cl)cc3)nc2cc1Cl,T/C,"dose: 100.0 mg/kg/injection, schedule: Q01DX001 (ip), vehicle: saline",98 % of control
O=C(c1ccc(Cl)cc1)C(O)c1ccc(Cl)cc1 (stereo not drawn),T/C,[9],93 % of control
same,T/C,[1],100 % of control
same,T/C,"dose: 200.0 mg/kg/injection, schedule: Q01DX009 (ip), vehicle: saline with Tween-80",98 % of control
same,T/C,[2],96 % of control
same,T/C,"dose: 400.0 mg/kg/injection, schedule: Q01DX009 (ip), vehicle: saline with Tween-80",107 % of control
same,T/C,"dose: 400.0 mg/kg/injection, schedule: Q04DX003 (ip), vehicle: saline with Tween-80",91 % of control
CCOP(=S)(OCC)C(C)(C)C,T/C,[5],107 % of control
same,T/C,[6],103 % of control
same,T/C,[7],95 % of control
Cc1ccc(-n2c(=S)[nH]c3ccc(C)cc3c2=O)cc1,T/C,"dose: 0.38 mg/kg/injection, schedule: Q01DX009 (ip), vehicle: saline with Tween-80",90 % of control
same,T/C,"dose: 0.75 mg/kg/injection, schedule: Q01DX009 (ip), vehicle: saline with Tween-80",92 % of control
same,T/C,"dose: 1.5 mg/kg/injection, schedule: Q01DX009 (ip), vehicle: saline with Tween-80",98 % of control
same,T/C,"dose: 1.56 mg/kg/injection, schedule: Q01DX009 (ip), vehicle: saline with Tween-80",95 % of control
same,T/C,"dose: 25.0 mg/kg/injection, schedule: Q04DX003 (ip), vehicle: saline with Tween-80",92 % of control
same,T/C,"dose: 50.0 mg/kg/injection, schedule: Q04DX003 (ip), vehicle: saline with Tween-80",90 % of control
same,T/C,[1],87 % of control
CC(C)NC(=O)CCCN(C(=O)OCc1ccccc1)N(C)C(=O)OCc1ccccc1,T/C,"dose: 25.0 mg/kg/injection, schedule: Q04DX003 (ip), vehicle: Klucel (hydroxypropylcellulose) (HPC)",94 % of control
same,T/C,"dose: 50.0 mg/kg/injection, schedule: Q04DX003 (ip), vehicle: Klucel (hydroxypropylcellulose) (HPC)",91 % of control
same,T/C,[3],103 % of control
same,T/C,[4],91 % of control
same,T/C,"dose: 400.0 mg/kg/injection, schedule: Q04DX003 (ip), vehicle: Klucel (hydroxypropylcellulose) (HPC)",95 % of control
CC(=O)Nc1ccc(/C=N\NC(=O)CNC(=O)Nc2ccc(F)cc2)cc1,T/C,"dose: 50.0 mg/kg/injection, schedule: Q01DX009 (ip), vehicle: saline with Tween-80",96 % of control
same,T/C,[9],96 % of control
O=C(O)c1ccccc1C(=O)c1cccc2ccccc12,T/C,[1],104 % of control
same,T/C,[2],96 % of control
CC1(C)N=C(N)N=C(N)N1c1cc(Cl)cc(CCNC(=O)Nc2ccc(S(=O)(=O)F)cc2)c1,T/C,[8],92 % of control
